Ends that are not written are not given here.

In data set [1] the test system is C. albicans (clinical isolate). Kind of data set: C. albicans viability, colony forming units (incl. comparison with fluconazole and ACTH). It counts as cell-based, Candida albicans. The arrangement: potency in reducing C. albicans viability / inhibition of C. albicans CFU: dose or concentration left out as unconfirmed. The conditions noted are these: for potency in reducing C. albicans viability: comparison among peptides, fluconazole and ACTH; for effect on C. albicans colony forming units: 10^−15 to 10^−4M, 2 hours at 37° C., FIG. 7. The procedure: C. albicans (clinical isolate) were obtained from the collection of the Department of Microbiology, Ospedale Maggiore di Milano. C. albicans were maintained on Sabouraud'[…] periodically transferred to Sabouraud's agar plates and incubated for 48 hours at 28° C. To prepare stationary growth phase yeast, a colony was taken from the agar plate and transferred into 30 ml Sabouraud-dextrose broth and incubated for 72 hours at 32° C. Cells were centrifuged at 100×g for 10 minutes and the pellet was washed twice with distilled water. Cells were counted and suspended in Hank's balanced salt solution (“HBSS”) to the desired concentration. Viability, determined by the exclusion of 0.01% methylene blue, remained >98%. […] ID NO. […] Cells were then washed in cold distilled water and diluted with HBSS to a concentration of 100 organisms/ml. One ml aliquots were dispensed on blood agar plates and incubated for 48 hours at 37° C. Organism viability was estimated from the number of colonies formed. […] (SEQ. […] Fluconazole is a well established antifungal agent. The potency of the peptides in reducing C. albicans viability is studied in comparison with fluconazole and ACTH using similar procedures as in Example VII. […] There were at least six replicates for each concentration of peptide. […] Their inhibitory activity was similar to that of fluconazole. The “core” α-MSH sequence, α-MSH [4-10] (SEQ. […] (SEQ. ID NO. 3) and α-MSH [11-13] […] (SEQ. ID NO. 4) (p<0.05).

Another data set concerns corneal epithelial cells. The conditions noted are these: Lens Eye Toxic. Res. 6: 59-85 (1989); cited from earlier work.
The conditions of data set [2]: centrally administered; Peptides 9, 1285-8 (1989); cited from earlier work.
Data set [3] concerns Staphylococcus aureus (ATCC29213). Kind of data set: S. aureus viability, colony forming units. It counts as cell-based. The arrangement: dose or concentration left out as unconfirmed. Particulars: 2 hours at 37° C.; FIG. 5. As to the method:
Staphylococcus aureus (ATCC29213) was obtained from the collection of the Department of Microbiology, Ospedale Maggiore di Milano. […] (SEQ. ID NO 4), α-MSH [11-13] […] S. aureus were then washed in cold distilled water and diluted with HBSS to a concentration of 100 organisms/ml. One ml aliquots were dispensed on blood agar plates and incubated for 24 hours at 37° C. Organism viability was estimated from the number of colony forming units. (SEQ. ID NO. 4) and α-MSH [11-13]

In a further data set the test system is Keratomycosis. Nature of the data set: Treatment of fungal ophthalmic infection, Keratomycosis, patient. It counts as in vivo. The conditions noted are these: ophthalmic aqueous solution 10^−5 M, 3-5 drops four times daily for 7 days. The text has this:
Upon examination, a patient is diagnosed as having Keratomycosis.

The subject of data set [4] is HIV-1 RNA in PMA-stimulated U1 cells. Nature of the data set: HIV transcription, Northern blot analysis of HIV-RNA in PMA-stimulated U1 cells. Format: cell-based. The conditions noted are these: 10^−5M; PMA (1 ng/mL) stimulated U1 cells, 24 h; FIG. 4. The text has this: Total RNA was extracted by the guanidine thiocyanate phenol method using an RNA isolation kit (Tripure, Boehringer Mannheim, Indianapolis, Ind.), following the manufacturer's instructions. Ten μg of total RNA were separated by 0.8% agarose/formaldehyde gel electrophoresis and transferred onto nylon membrane. The filters were baked and hybridized for 18 hr with α^32 P-labeled HIV-full length probe (kind gift of L. Turchetto and E. Vicenzi, S. Raffaele Hospital, Milan, Italy). The radiolabeling reaction was performed using a DNA labeling kit (Ready-to-go, Pharmacia Biotech, San Francisco, Calif.). Filters were washed and exposed to X-ray film for 5 days. The labeled probe was removed by washing at 80° C. in 0.1×SSC containing 0.1% sodium dodecyl sulphate and then rehybridized with α^32 P-labeled glyceraldehyde-3-phosphate dehydrogenase (GAPDH) cDNA probe. Densitometric analysis was performed using ImageMaster™ VDS 3.0 software (Pharmacia Biotech) and results were expressed as density units.

The subject of data set [5] is Herpes simplex virus blepharitis. Kind of data set: Treatment of viral ophthalmic infection, HSV blepharitis, patient. It counts as in vivo. Particulars: ophthalmic aqueous solution 10^−5 M, 3-5 drops four times daily for 7 days. The procedure: A patient is diagnosed as having Herpes simplex virus blepharitis. […] The patient is treated with 3-5 drops of the ophthalmic aqueous solution onto the surface of eyes four times daily for 7 days.

Data set [6] deals with S. aureus with recombinant human urokinase. Nature of the data set: Urokinase-induced growth-enhancement of S. aureus, colony counts. It counts as cell-based, Staphylococcus aureus. The conditions noted are these: 10^−6 M; urokinase 500 U, four hours at 37° C.; FIG. 6; listed as α-MSH [11-13]. The procedure:
In this experiment, the influence of α-MSH on urokinase-induced growth-enhancement is determined. Hart, D. A.; Loule, T.; Krulikl, W.; Reno, C., Staphylococcus Aureus Strains Differ in Their in Vitro Responsiveness to Human Urokinase: Evidence that Methicillin-Resistant Strains are Predominantly Nonresponsive to the Growth-Enhancing Effects of Urokinase, Can. J. Microbiol. 42, 1024-31 […]. […] (SEQ. ID NO. 4) or α-MSH [11-13] (SEQ. ID NO. […]) at 10^−6 M. Appropriate dilutions of S. aureus were dispensed on agar plates and colonies counted after 24 hours incubation at 37° C.

The test system of data set [7] is HIV-1 infected promonocytic U1 cells. Kind of data set: HIV-p24 and reverse transcriptase release by U1 cells stimulated by IL-6, IL-10, PMA or crowding. It counts as cell-based. Particulars: 10^−5 M; U1 cells induced by IL-6, IL-10, PMA, and in crowding conditions; FIG. 3. As to the method:
In all experiments, each condition was tested in triplicate.

In data set [8] the test system is infectious keratitis of bacterial etiology. Kind of data set: Treatment of bacterial ophthalmic infection, bacterial keratitis, patient. Format: in vivo. The conditions noted are these: ophthalmic aqueous solution 10^−5 M, 3-5 drops four times daily for 7 days. The text has this: A patient presents complaining of eye pain when blinking and blurred vision. Upon examination the cornea appears subtly less transparent than normal cornea and may have ulcers on its surface. The diagnosis is infectious keratitis of bacterial etiology, which is confirmed by laboratory findings.

Data set [9] concerns HIV-1 infected promonocytic U1 cell line. Kind of data set: HIV-p24 release by TNF-α stimulated U1 cells (ELISA). It counts as cell-based. The conditions noted are these: 10^−13 to 10^−4 M, FIG. 2. The text has this:
Before use, cells were washed three times with HBSS (Gibco) to remove extracellular virus.

The conditions of data set [10]: Peptides 6, 273-5 (1985); cited from earlier work.
Data set [11] concerns Herpes zoster virus (HZV). Particulars: Eye 8: 70-74 (1994); cited from earlier work.
For data set [12] the following is noted: Peptides 12, 767-71 (1991); cited from earlier work.

“ACTH (1-39): Adrenocorticotropic Hormone (1-39) (SYSMEHFRWGKPVGKKRRPVKVYPNGAEDESAEAFPLEF; Corticotropin; UniProt P01189 138-176, looked up) [reference compound]”: in data set [1] (FIG. 8), the “potency in reducing C. albicans viability” value is given as “did not reduce”.

In the case of `O=c1[nH]c(=O)n([C@H]2C[C@H](O)[C@@H](CO)O2)cc1I` [Idoxurine], in the data set with corneal epithelial cells, the “toxicity to corneal epithelial cells” value is given as “toxic to corneal epithelial cells”.

For “8-13 sequence: α-MSH 8-13 sequence (RWGKPV; ends and bridges not checked; UniProt P01189 145-150, looked up, fragment)”, the “antipyretic potency relative to α-MSH (11-13) sequence” value (from here on “antipyretic potency relative to α-MSH”) in data set [2] is “greater than that of the 11-13 sequence”. Take “Val-Pro-Lys-AcCys-s-s-CysAc-Lys-Pro-Val [KPV dimer]”: the “effect on C. albicans colony forming units” value in data set [1] is recorded as “inhibited”. Also, the “effect on S. aureus colony formation (CFU)” value in data set [3] was “inhibited”. Consider MEHFRWG (Ac-MEHFRWG-NH2) [α-MSH [4-10]], for which the “inhibition of C. albicans CFU” value in data set [1] (FIG. 8) was “approximately 50%”. As for “9-13 sequence: α-MSH 9-13 sequence (WGKPV; ends and bridges not checked; UniProt P01189 146-150, looked up, fragment)”, the “antipyretic potency relative to α-MSH” value in data set [2] is “almost devoid of activity”. On to KPV, for which, in the data set with Keratomycosis, the “outcome of Keratomycosis after treatment” value is “either shows marked improvement or fully recovers”. Further, in data set [4], the “reduction of spliced HIV-1 RNA” value is on record as “approximately 50%” and the “reduction of unspliced HIV-1 RNA” value is “approximately 50%”. The “HSV blepharitis symptom after treatment” value in [5] was “substantially reduced”. Besides, the “effect on urokinase-enhanced S. aureus colony formation” value in data set [6] is “significantly inhibited the enhancing effect of urokinase”. Also, the “effect on C. albicans colony forming units” value in data set [1] is listed as “greatly reduced”. Besides, the “potency in reducing C. albicans viability” value in [1] (FIG. 8) is recorded as “most effective”. Besides, in [7], the “effect on RT (reverse transcriptase) release” value was “significantly inhibited” and the “effect on p24 release” value is on record as “significantly inhibited”. In data set [3], the “effect on S. aureus colony formation (CFU)” value is on record as “inhibited”. Also, in data set [8], the “outcome of bacterial keratitis after treatment” value is “either shows marked improvement or fully recovers”. Further, the “effect on p24 release” value in data set [9] was “significantly inhibited”. Regarding [Nle^4 DPhe^7]-α-MSH, the “potency in reducing fever relative to parent peptide α-MSH” value in data set [10] was “approximately ten times more potent than the parent peptide”. For the compound `Nc1nc2c(ncn2COCCO)c(=O)[nH]1` [Acyclovir], the “preventative effect on ocular complications of HZV” value in [11] is given as “little or no preventative effect”.

Turning to [D-K^11] α-MSH 11-13, the “anti-inflammatory activity relative to L-form tripeptide α-MSH 11-13” value in data set [12] is given as “same general potency as the L-form”. Take “ACTH (18-39): ACTH fragment (18-39), also called CLIP [reference compound]”: the “potency in reducing C. albicans viability” value in data set [1] (FIG. 8) is on record as “did not reduce”.

For “HFRWGKPV (Ac-HFRWGKPV-NH2) [α-MSH [6-13], α-MSH from residue 6 through residue 13]”, the “potency in reducing C. albicans viability” value in data set [1] (FIG. 8) was “most effective”. Turning to “10-13 sequence: α-MSH (11-13) with glycine added to form the 10-13 sequence (GKPV; ends and bridges not checked; UniProt P01189 147-150, looked up, fragment)”, in data set [2], the “antipyretic potency relative to α-MSH” value was “slightly decreased potency”.

The record behind these values is patent US20040009181A1, “Treatment of ophthalmic conditions” (priority 2002, published 2004).
